The record followed here is paper PMC6614837 (Nucleic Acids Research, 2019).

The test has as its target T1, P protein from T. maritima (Thermotoga maritima, UniProt Q9X1H4).
T1 construct: GST (cleaved yes); made in house; host or cells: E. coli BL21(DE3)pLysS
T1 sequence (Q9X1H4 1-117): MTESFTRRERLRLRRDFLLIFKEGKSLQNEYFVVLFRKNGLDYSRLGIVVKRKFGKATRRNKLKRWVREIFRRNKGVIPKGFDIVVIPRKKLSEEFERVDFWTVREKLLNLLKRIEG
Kind of test: Biolayer interferometry binding to immobilized His-tagged P protein. The conditions noted are these: BLI, P protein on Ni-NTA, 1:1 Langmuir model. How it is done:
Immobilization of the His-tagged P protein from T. maritima at 0.05 mg/ml (3.4 μM) was performed on Ni-NTA biosensors. For the initial binding tests to the P protein, a compound concentration of 1 mM was used. Periods for each step of the assay were as follows: immobilization (400 s), wash (100 s), baseline establishment (100s), association (250 s), dissociation (250 s). For each titration curve, […] were used corresponding to the 125, 62.5, 31.25, 15.6 and 7.8 μM compound concentrations. Control biosensors were used to subtract non-specific binding of compounds to the biosensor surface. […] Kinetic binding parameters were calculated using Data Analysis 8.2 (ForteBio, Inc.). […]
Figure 5. […] Association and dissociation of the 5′ RNA leader to the P protein (TmP) is measured over time. […] P protein was immobilized on Ni-NTA biosensors after which its association and dissociation from indicated compounds were monitored. […] (C) Location of purpurin (green) on the T. maritima P protein as determined by X-ray crystallography (PDB code: 6MAX; see Supplementary Figure S19 and Supplementary Table S2). […]
Supplementary Figure 15. […] The pre-tRNA in buffer HAAMD (20 mM HEPES pH 7.4, 100 mM ammonium acetate, 10 mM MgCl2, 5% DMSO or 5% PEG 200) was measured against RNase P in concentrations ranging from 62.5 to 7.8 nM in a two-fold dilution series. […]

Compound `O=C1c2ccccc2C(=O)c2c(O)c(O)cc(O)c21` [Purpurin, 1,2,4-trihydroxyanthraquinone] came in with an equilibrium dissociation constant (Kd) of 6.8 µM.
